This data set deals with T1, OATP1B1 (Homo sapiens, UniProt Q9Y6L6).
T1 construct: expressed in transfected cells; host or cells: HEK293
T1 sequence (Q9Y6L6 1-691): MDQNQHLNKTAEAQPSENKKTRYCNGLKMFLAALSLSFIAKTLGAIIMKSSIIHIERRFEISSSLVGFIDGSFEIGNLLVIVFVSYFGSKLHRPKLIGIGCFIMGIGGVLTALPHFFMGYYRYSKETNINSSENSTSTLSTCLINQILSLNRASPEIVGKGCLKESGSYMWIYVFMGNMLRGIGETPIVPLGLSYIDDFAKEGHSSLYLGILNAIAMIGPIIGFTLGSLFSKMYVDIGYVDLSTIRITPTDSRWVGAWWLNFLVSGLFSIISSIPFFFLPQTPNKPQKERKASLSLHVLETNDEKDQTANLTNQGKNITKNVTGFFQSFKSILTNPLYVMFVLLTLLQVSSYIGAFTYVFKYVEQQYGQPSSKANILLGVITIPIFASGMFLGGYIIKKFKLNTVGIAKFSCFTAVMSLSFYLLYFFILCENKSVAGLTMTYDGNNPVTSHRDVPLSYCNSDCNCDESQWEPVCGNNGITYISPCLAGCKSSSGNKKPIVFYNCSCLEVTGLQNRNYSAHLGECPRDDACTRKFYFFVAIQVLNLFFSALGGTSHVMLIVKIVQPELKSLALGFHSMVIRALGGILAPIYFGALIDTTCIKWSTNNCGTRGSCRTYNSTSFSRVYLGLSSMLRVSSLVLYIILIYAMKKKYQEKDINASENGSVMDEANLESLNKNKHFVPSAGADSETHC
Put plainly: Washout assay: recovery of OATP1B1 function (EβG uptake). In kind it is cell-based. To be noted: within a 1-h period after 15 min treatment with gilteritinib 15 µM; 0.2 μM EβG. Here is the method:
OATP1B1 overexpressing cells and vector control cells were plated in 12-well plates 24 h prior to experimentation. Cells were then washed with warm PBS and pre-incubated for 15 min with 0.5 mL DMSO or gilteritinib (15 μM) in DMEM at 37 °C. After pre-incubation, the supernatant was removed, and cells were washed with PBS. Compound-free medium was then added, and the cells were further incubated for periods of 15, 30, and 60 min. Next, the medium was removed, and cells were incubated with 0.5 mL of 0.2 μM EβG for 15 min. After that, the medium was removed and the cells were washed three times with ice-cold PBS, and 1 N NaOH was added to the wells to stop the rection. The next day 1 M HCL was added to each well and substrate concentrations were assessed using liquid scintillation counting. The resulting data were normalized to total protein as determined by a Pierce protein assay.

Consider `CCc1nc(C(N)=O)c(Nc2ccc(N3CCC(N4CCN(C)CC4)CC3)c(OC)c2)nc1NC1CCOCC1` [Gilteritinib], for which the “OATP1B1 transport recovered after washout” value stood at 75%.
